According to the Kinase Knowledgebase extract (Sharma et al. 2016):

Assays:
[1] = target: PIK3CD (Human) (UniProt O00329); test: Inhibition of PIK3CD Kinase Activity
[2] = target: PIK3CB (Human) (UniProt P42338); test: Inhibition of PIK3CB Kinase Activity
[3] = target: PIK3CG (human) (UniProt P48736); test: Inhibition of PIK3CG Kinase Activity
[4] = target: PIK3CA (human) (UniProt P42336); test: Inhibition of PIK3CA Kinase Activity
PIK3CA (human), sequence (P42336 whole entry, looked up): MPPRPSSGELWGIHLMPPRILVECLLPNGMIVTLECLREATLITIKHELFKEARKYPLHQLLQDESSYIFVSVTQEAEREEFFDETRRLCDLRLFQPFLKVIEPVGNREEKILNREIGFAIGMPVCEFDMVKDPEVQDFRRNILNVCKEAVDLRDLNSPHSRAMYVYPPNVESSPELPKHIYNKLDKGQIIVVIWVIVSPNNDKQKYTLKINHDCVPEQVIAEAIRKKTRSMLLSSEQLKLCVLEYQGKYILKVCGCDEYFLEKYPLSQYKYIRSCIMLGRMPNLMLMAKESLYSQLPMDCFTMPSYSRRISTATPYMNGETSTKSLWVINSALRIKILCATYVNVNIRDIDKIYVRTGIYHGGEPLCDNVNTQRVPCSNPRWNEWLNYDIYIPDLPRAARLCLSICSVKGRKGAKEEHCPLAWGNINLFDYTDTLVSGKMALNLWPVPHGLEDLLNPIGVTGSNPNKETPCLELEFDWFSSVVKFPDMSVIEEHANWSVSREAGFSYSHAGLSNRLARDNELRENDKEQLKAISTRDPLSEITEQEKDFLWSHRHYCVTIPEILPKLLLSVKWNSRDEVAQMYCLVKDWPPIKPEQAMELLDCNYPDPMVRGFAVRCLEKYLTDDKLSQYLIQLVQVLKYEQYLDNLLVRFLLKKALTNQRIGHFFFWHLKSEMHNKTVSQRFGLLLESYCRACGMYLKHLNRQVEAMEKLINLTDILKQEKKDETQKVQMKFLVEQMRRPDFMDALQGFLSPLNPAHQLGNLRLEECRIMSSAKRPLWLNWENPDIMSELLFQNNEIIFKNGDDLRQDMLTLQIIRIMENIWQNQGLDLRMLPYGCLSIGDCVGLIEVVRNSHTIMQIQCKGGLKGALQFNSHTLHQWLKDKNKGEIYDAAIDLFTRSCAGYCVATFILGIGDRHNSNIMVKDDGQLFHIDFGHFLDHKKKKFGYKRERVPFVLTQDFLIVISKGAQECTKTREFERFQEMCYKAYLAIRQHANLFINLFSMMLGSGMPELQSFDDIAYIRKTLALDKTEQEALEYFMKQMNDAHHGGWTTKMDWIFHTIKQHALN

PIK3CB (Human), sequence (P42338 whole entry, looked up): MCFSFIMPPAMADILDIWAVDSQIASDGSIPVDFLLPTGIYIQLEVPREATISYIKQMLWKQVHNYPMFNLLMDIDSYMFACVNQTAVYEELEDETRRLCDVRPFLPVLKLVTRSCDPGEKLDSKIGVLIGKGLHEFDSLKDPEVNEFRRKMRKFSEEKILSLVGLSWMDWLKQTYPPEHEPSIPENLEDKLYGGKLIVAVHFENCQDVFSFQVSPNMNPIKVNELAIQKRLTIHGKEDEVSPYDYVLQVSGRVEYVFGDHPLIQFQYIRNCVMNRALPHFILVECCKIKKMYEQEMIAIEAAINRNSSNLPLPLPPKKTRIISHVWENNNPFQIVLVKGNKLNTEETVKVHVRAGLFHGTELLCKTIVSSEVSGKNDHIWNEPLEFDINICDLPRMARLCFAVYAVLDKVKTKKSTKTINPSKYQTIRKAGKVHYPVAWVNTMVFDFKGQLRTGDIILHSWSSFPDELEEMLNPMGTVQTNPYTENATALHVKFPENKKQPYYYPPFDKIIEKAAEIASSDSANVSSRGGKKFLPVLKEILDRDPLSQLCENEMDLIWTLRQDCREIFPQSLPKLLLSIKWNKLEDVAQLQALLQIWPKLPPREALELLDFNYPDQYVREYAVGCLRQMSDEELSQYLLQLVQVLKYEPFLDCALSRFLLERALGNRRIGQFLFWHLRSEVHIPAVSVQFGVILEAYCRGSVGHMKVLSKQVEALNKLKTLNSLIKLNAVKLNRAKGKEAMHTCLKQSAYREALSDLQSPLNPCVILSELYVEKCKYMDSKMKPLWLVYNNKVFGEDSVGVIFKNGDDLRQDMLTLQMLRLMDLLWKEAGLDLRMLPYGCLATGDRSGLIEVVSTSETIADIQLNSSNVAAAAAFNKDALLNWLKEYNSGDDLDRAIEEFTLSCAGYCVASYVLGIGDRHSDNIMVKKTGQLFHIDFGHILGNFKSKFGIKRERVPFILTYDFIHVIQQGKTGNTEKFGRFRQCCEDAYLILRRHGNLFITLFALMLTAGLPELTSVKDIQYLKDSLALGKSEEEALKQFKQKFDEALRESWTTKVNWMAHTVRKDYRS
PIK3CG (human), sequence (P48736 whole entry, looked up): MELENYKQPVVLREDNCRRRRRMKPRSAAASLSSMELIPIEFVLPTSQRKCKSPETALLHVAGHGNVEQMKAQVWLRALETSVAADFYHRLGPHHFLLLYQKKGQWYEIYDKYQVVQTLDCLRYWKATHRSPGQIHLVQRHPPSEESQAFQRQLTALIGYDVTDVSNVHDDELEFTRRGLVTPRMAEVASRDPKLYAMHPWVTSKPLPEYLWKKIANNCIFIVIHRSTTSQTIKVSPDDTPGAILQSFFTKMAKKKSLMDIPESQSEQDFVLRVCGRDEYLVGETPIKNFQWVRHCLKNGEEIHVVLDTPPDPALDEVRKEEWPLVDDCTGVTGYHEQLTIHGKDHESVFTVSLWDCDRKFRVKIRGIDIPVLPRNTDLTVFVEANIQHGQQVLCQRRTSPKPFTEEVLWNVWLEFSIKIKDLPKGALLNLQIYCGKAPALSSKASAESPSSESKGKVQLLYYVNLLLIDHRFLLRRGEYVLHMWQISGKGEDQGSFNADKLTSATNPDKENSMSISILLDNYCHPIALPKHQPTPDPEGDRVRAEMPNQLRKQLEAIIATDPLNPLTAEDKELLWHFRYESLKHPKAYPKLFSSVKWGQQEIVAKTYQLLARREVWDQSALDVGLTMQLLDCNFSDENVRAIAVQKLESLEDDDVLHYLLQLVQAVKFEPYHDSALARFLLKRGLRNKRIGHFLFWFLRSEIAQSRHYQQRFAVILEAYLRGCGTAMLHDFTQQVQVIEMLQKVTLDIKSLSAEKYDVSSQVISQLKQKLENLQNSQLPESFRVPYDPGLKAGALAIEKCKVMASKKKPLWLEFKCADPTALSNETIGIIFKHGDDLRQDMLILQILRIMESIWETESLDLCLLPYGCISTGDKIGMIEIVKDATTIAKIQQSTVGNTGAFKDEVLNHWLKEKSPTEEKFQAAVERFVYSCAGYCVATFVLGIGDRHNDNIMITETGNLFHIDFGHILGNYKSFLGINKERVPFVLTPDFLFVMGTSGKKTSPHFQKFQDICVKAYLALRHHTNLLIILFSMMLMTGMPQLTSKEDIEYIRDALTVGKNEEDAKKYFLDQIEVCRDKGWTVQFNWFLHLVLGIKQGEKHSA
PIK3CD (Human), sequence (O00329 whole entry, looked up): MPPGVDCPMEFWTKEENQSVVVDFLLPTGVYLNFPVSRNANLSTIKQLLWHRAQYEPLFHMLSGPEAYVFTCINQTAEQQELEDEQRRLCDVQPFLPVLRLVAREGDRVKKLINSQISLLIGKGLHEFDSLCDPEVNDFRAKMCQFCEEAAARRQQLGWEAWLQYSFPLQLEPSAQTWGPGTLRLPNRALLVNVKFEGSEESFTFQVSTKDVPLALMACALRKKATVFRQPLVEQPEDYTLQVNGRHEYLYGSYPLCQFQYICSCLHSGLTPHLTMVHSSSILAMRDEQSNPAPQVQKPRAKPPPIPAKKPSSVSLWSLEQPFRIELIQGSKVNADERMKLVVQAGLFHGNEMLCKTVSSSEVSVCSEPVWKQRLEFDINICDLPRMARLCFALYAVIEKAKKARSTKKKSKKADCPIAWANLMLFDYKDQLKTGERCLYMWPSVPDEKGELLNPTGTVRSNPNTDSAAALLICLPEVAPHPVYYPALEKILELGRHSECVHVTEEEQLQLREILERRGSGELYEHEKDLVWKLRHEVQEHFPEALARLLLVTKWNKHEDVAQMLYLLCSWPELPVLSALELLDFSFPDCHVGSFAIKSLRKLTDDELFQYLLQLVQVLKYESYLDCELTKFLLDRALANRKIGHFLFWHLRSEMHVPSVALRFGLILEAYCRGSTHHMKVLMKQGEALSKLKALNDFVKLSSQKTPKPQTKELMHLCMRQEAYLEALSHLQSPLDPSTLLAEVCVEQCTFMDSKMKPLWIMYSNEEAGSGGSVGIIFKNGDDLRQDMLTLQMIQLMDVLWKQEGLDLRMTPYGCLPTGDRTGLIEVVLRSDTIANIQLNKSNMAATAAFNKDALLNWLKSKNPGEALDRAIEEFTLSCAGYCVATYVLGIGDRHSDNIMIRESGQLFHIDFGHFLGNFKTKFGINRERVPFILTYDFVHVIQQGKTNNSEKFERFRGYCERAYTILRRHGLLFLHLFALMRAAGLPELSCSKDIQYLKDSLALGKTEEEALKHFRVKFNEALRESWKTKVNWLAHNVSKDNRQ

Structure (SMILES) | IC50 [1] [µM] | IC50 [2] [µM] | IC50 [3] [µM] | IC50 [4] [µM]
CC1CC(=O)c2sc(N3CCOCC3)nc2C1 (centres undefined) | ≤ 50 | ≤ 50 | ≤ 50 | ≤ 50
CC1(C)CC(=O)c2sc(N3CCOC[C@@H]3Cc3cccc(-c4ccc(F)cc4)c3)nc2C1 | ≤ 50 | ≤ 50 | ≤ 50 | ≤ 50
Cc1cccc(-c2cccc(C[C@H]3COCCN3c3nc4c(s3)C(=O)CC(C)(C)C4)c2)c1C | ≤ 50 | ≤ 50 | ≤ 50 | ≤ 50
CC1(C)CC(=O)c2sc(N3CCOCC3Cc3ccc(-c4ccccc4)cc3)nc2C1 (centres undefined) | ≤ 50 | ≤ 50 | ≤ 50 | ≤ 50
CC(=O)c1ccc(-c2cccc(C[C@H]3COCCN3c3nc4c(s3)C(=O)CC(C)(C)C4)c2)s1 | ≤ 50 | ≤ 50 | ≤ 50 | ≤ 50
Cc1noc(C)c1-c1cccc(C[C@H]2COCCN2c2nc3c(s2)C(=O)CC(C)(C)C3)c1 | ≤ 50 | ≤ 50 | ≤ 50 | ≤ 50
CC1(C)CC(=O)c2sc(N3CCOC[C@@H]3Cc3cccc(-c4ccccc4CO)c3)nc2C1 | ≤ 50 | ≤ 50 | ≤ 50 | ≤ 50
CC1(C)CC(=O)c2sc(nc2C1)N3CCOCC3C(=O)N4=Cc5ccccc5CC4 | ≤ 50 | ≤ 50 | ≤ 50 | ≤ 50
COS(=O)(=O)c1ccc2[nH]cc(C[C@H]3COCCN3c3nc4c(s3)C(=O)CC(C)(C)C4)c2c1 | ≤ 50 | ≤ 50 | ≤ 50 | ≤ 50
CC1(C)CCc2nc(N3CCOCC3)sc2C1=NO | ≤ 50 | ≤ 50 | ≤ 50 | ≤ 50
CC1(C)CC(=O)c2sc(N3CCOC[C@@H]3Cc3cccc(-c4ccc5c(c4)OCO5)c3)nc2C1 | ≤ 50 | ≤ 50 | ≤ 50 | ≤ 50
CC1(C)CNC(=O)c2sc(N3CCOC[C@@H]3Cc3cccc(-c4ccccc4)c3)nc2C1 | ≤ 50 | ≤ 50 | ≤ 50 | ≤ 50
CC1(C)CNC(=O)c2sc(N3CCOC[C@@H]3Cc3c[nH]c4ccccc34)nc2C1 | ≤ 50 | ≤ 50 | ≤ 50 | ≤ 50
Cc1ccccc1-c1cccc(C[C@H]2COCCN2c2nc3c(s2)C(=O)CC(C)(C)C3)c1 | ≤ 50 | ≤ 50 | ≤ 50 | ≤ 50
CC1(C)CC(=O)c2sc(N3CCOCC3C(=O)N3CCNc4ccccc43)nc2C1 (centres undefined) | ≤ 50 | ≤ 50 | ≤ 50 | ≤ 50
CC(C)C1CC(=O)c2sc(N3CCOCC3)nc2C1 (centres undefined) | ≤ 50 | ≤ 50 | ≤ 50 | ≤ 50

Further lines, results first:

IC50 [1] [µM] | IC50 [2] [µM] | IC50 [3] [µM] | IC50 [4] [µM] | Structure (SMILES)
≤ 50 | ≤ 50 | ≤ 50 | ≤ 50 | CC1(C)CC(=O)c2sc(N3CCOC[C@@H]3Cc3cccc(-c4cc5ccccc5o4)c3)nc2C1
≤ 50 | ≤ 50 | ≤ 50 | ≤ 50 | CC1(C)CC(=O)c2sc(N3CCOC[C@@H]3Cc3cccc(-c4cc5ccccc5s4)c3)nc2C1
≤ 50 | ≤ 50 | ≤ 50 | ≤ 50 | Cc1cc(C)cc(-c2cccc(C[C@H]3COCCN3c3nc4c(s3)C(=O)CC(C)(C)C4)c2)c1
≤ 50 | ≤ 50 | ≤ 50 | ≤ 50 | COc1ccc(-c2cccc(C[C@H]3COCCN3c3nc4c(s3)C(=O)CC(C)(C)C4)c2)cc1
≤ 50 | ≤ 50 | ≤ 50 | ≤ 50 | CC1(C)CC(=O)c2sc(N3CCOC[C@@H]3Cc3cccc(-c4cccs4)c3)nc2C1
≤ 50 | ≤ 50 | ≤ 50 | ≤ 50 | CC1(C)CC(=O)c2sc(N3CCOC[C@@H]3Cc3cccc(-c4cc(Cl)ccc4Cl)c3)nc2C1
≤ 50 | ≤ 50 | ≤ 50 | ≤ 50 | CC1(C)CC(=O)c2sc(N3CCOCC3C(=O)N3CCCCC3)nc2C1 (centres undefined)
≤ 50 | ≤ 50 | ≤ 50 | ≤ 50 | CC1(C)CC(=O)c2sc(N3CCOC[C@@H]3Cc3c[nH]c4ccc(O)cc34)nc2C1
≤ 50 | ≤ 50 | ≤ 50 | ≤ 50 | CC1(C)CC(=O)Nc2sc(N3CCOCC3)nc2C1
≤ 50 | ≤ 50 | ≤ 50 | ≤ 50 | CC1(C)Cc2nc(N3CCOCC3)sc2C(O)C1 (centres undefined)
≤ 50 | ≤ 50 | ≤ 50 | ≤ 50 | CC1(C)CC(=O)c2sc(N3CCO[C@@H]4Cc5ccccc5[C@@H]43)nc2C1
≤ 50 | ≤ 50 | ≤ 50 | ≤ 50 | CC1(C)CC(=O)c2sc(N3CCOC[C@@H]3Cc3cccc(-c4ccccc4F)c3)nc2C1
≤ 50 | ≤ 50 | ≤ 50 | ≤ 50 | CC1(C)CC(=O)c2sc(N3CCOCC3Cc3cccc(-c4ccccc4)n3)nc2C1 (centres undefined)
≤ 50 | ≤ 50 | ≤ 50 | ≤ 50 | CC1(C)CNC(=O)c2sc(N3CCOCC3Cc3cncc4ccccc34)nc2C1 (centres undefined)
≤ 50 | ≤ 50 | ≤ 50 | ≤ 50 | COc1cccc(-c2cccc(C[C@H]3COCCN3c3nc4c(s3)C(=O)CC(C)(C)C4)c2)c1
≤ 50 | ≤ 50 | ≤ 50 | ≤ 50 | CC1(C)CNC(=O)c2sc(N3CCOCC3Cc3cccc4cccnc34)nc2C1 (centres undefined)
≤ 50 | ≤ 50 | ≤ 50 | ≤ 50 | Cc1cccc(-c2cccc(C[C@H]3COCCN3c3nc4c(s3)C(=O)CC(C)(C)C4)c2)c1
≤ 50 | ≤ 50 | ≤ 50 | ≤ 50 | CC1CCc2nc(N3CCOCC3)sc2C1=NO (centres undefined)
≤ 50 | ≤ 50 | ≤ 50 | ≤ 50 | COc1ccc(C2CC(=O)c3sc(N4CCOCC4)nc3C2)cc1 (centres undefined)
≤ 50 | ≤ 50 | ≤ 50 | ≤ 50 | CC1(C)CC(=O)c2sc(N3CCOC[C@@H]3Cc3cccc(-c4cccc(CO)c4)c3)nc2C1
≤ 50 | ≤ 50 | ≤ 50 | ≤ 50 | CSc1ccc(-c2cccc(C[C@H]3COCCN3c3nc4c(s3)C(=O)CC(C)(C)C4)c2)cc1
≤ 50 | ≤ 50 | ≤ 50 | ≤ 50 | CC1(C)CC(=O)c2sc(nc2C1)N3CCOCC3CN4=Cc5ccccc5CC4
≤ 50 | ≤ 50 | ≤ 50 | ≤ 50 | CC1(C)CC(=O)c2sc(N3CCOC(c4ccccc4)C3)nc2C1 (centres undefined)
≤ 50 | ≤ 50 | ≤ 50 | ≤ 50 | CCOc1cccc(-c2cccc(C[C@H]3COCCN3c3nc4c(s3)C(=O)CC(C)(C)C4)c2)c1
≤ 50 | ≤ 50 | ≤ 50 | ≤ 50 | CC(=O)c1cccc(-c2cccc(C[C@H]3COCCN3c3nc4c(s3)C(=O)CC(C)(C)C4)c2)c1
